Data from patent publication US20190359609A1, “BICYCLIC OGA INHIBITOR COMPOUNDS” (Janssen Pharmaceutica NV, priority 2016, published 2019).

Target: PDE2 (Homo sapiens, UniProt O00408)
Assay: PDE2 inhibitory activity (protocol as described in WO2017/076900, page 28)
Format: biochemical
Settings: screening concentration of 10 μM; read-out: PDE2 inhibitory activity, % effect

Sequence of PDE2 (O00408 whole entry): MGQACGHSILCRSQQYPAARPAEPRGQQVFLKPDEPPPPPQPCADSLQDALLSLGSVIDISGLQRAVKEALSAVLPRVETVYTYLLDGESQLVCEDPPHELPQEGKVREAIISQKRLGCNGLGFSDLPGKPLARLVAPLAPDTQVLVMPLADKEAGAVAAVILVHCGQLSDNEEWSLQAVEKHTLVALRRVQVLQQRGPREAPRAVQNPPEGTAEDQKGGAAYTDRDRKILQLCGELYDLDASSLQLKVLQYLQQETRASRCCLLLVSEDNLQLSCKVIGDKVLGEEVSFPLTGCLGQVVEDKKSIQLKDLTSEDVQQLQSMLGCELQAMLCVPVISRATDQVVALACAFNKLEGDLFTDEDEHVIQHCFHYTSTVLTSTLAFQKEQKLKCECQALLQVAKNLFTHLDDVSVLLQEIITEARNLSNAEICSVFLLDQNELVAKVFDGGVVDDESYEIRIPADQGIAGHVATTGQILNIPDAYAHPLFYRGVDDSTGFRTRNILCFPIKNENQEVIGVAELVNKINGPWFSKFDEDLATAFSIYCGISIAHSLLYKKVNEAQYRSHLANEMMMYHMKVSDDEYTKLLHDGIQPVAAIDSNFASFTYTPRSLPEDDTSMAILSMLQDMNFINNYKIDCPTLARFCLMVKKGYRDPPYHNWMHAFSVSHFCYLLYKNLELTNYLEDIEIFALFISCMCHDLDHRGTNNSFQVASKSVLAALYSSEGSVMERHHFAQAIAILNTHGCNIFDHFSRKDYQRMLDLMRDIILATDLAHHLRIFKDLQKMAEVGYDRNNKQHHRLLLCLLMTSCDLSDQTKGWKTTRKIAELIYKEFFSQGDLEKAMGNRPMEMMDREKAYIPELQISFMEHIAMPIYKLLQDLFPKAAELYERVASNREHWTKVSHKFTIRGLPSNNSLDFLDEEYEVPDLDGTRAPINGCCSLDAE

Row | inhibition at 10 µM [%] | SMILES
1 | 33.1 | CC(=O)Nc1ncc(S(=O)(=O)N2CCCC(c3cc4ncccc4[nH]3)C2)s1 (centres unmarked) [Compound 2]

Target: T1, OGA (Homo sapiens, UniProt O60502)
T1 construct: endogenous in cells; host or cells: HEK293 cells inducible for P301L mutant human Tau (2N4R)
T1 sequence (O60502 1-916): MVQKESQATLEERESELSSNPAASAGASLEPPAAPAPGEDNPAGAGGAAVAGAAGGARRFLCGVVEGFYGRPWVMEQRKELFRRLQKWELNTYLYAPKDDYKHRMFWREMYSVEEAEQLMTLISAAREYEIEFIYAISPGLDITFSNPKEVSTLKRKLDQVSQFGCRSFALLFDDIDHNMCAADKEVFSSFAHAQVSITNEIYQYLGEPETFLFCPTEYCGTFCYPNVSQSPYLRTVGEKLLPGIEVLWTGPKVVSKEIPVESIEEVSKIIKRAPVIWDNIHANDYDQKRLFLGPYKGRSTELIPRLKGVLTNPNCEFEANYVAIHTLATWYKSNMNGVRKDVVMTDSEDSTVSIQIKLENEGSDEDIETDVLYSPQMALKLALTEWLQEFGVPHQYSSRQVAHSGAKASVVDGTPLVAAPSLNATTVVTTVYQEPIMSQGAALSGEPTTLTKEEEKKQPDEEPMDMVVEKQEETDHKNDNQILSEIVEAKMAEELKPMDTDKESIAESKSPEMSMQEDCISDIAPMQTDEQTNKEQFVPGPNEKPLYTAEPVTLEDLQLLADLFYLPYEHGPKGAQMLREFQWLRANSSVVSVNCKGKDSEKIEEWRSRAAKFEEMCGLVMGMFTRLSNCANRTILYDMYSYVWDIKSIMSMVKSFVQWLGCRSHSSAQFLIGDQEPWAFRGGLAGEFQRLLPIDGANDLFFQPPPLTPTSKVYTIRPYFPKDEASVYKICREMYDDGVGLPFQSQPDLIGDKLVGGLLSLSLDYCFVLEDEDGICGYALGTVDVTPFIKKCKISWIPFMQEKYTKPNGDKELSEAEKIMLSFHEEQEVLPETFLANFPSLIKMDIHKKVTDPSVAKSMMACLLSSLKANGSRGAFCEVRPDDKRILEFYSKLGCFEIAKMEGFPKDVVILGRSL
Assay: OGA cellular assay: ICC detection of O-GlcNAcylated proteins in HEK293 cells inducible for P301L mutant human Tau
Format: cell-based
Settings: 6 hours incubation
Method: HEK293 cells inducible for P301L mutant human Tau (isoform 2N4R) were established at Janssen. Thiamet-G was used for both plate validation (high control) and as reference compound (reference EC50 assay validation). OGA inhibition is evaluated through the immunocytochemical (ICC) detection of O-GlcNAcylated proteins by the use of a monoclonal antibody (CTD110.6; Cell Signaling, #9875) detecting O-GlcNAcylated residues as previously described (Dorfmueller et al. 2010 Chemistry & biology, 17:1250).
Inhibition of OGA will result in an increase of 0-GlcNAcylated protein levels resulting in an increased signal in the experiment. Cell nuclei are stained with Hoechst to give a cell culture quality control and a rough estimate of immediate compounds toxicity, if any. ICC pictures are imaged with a Perkin Elmer Opera Phenix plate microscope and quantified with the provided software Perkin Elmer Harmony 4.1.
Cells were propagated in DMEM high Glucose (Sigma, #D5796) following standard procedures. 2 days before the cell assay cells are split, counted and seeded in Poly-D-Lysine (PDL) coated 96-wells (Greiner, #655946) plate at a cell density of 12,000 cells per cm^2 (4,000 cells per well) in 100 μl of Assay Medium (Low Glucose medium is used to reduce basal levels of GlcNAcylation) (Park et al. 2014 The Journal of biological chemistry 289:13519). At the day of compound test medium from assay plates was removed and replenished with 90 μl of fresh Assay Medium. 10 μl of compounds at a 10fold final concentration were added to the wells. Plates were centrifuged shortly before incubation in the cell incubator for 6 hours. DMSO concentration was set to 0.2%. Medium is discarded by applying vacuum. For staining of cells medium was removed and cells washed once with 100 μl D-PBS (Sigma, #D8537). From next step onwards unless other stated assay volume was always 50 μl and incubation was performed without agitation and at room temperature. Cells were fixed in 50 μl of a 4% paraformaldehyde (PFA, Alpha aesar, #043368) PBS solution for 15 minutes at room temperature. […] Before analysis samples were washed 2 times manually for 5 minutes in ICC base buffer.
Imaging is performed using Perkin Elmer Phenix Opera using a water 20× objective and recording 9 fields per well. Intensity readout at 488 nm is used as a measure of O-GlcNAcylation level of total proteins in wells. To assess potential toxicity of compounds nuclei were counted using the Hoechst staining. IC50-values are calculated using parametric non-linear regression model fitting. As a maximum inhibition Thiamet G at a 200 uM concentration is present on each plate. In addition, a concentration response of Thiamet G is calculated on each plate.

Row | SMILES | Emax [%]
2 | CC(=O)Nc1ncc(CN2CCCC(c3nc4ncccc4[nH]3)C2)s1 (single isomer, unassigned) [Compound 19] | 109
3 | CC(=O)Nc1ncc(CN2CCC(Cc3cc4ncccc4n3C)C2)s1 (centres unmarked) [Compound 25] | 121
4 | CC(=O)Nc1ncc(CN2CCCC(Cc3cc4ncccc4n3C)C2)s1 (centres unmarked) [Compound 26] | 118
5 | c1cnc2cc(C3CCCN(Cc4ccc5c(c4)OCCO5)C3)[nH]c2c1 (centres unmarked) [Compound 39] | 90.3

Second part, the compound after the results:

Row | Emax [%] | SMILES
6 | 75.1 | CC(c1ccc2c(c1)OCCO2)N1CCCC(c2cc3ncccc3n2C)C1 (centres unmarked) [Compound 40]
7 | 7.2 | O=C(CN1CCCC(c2cc3ncccc3[nH]2)C1)N1CCCC1 (centres unmarked) [Compound 49]

Same assay, conditions: 6 hours incubation, read-out: Cellular hOGA, pEC50 (converted)

Row | SMILES | EC50 [µM]
8 | CC(=O)Nc1ncc(CN2CCCC(c3nc4ncccc4[nH]3)C2)s1 (single isomer, unassigned) [Compound 19] | 0.851
9 | CC(=O)Nc1ncc(CN2CCC(Cc3cc4ncccc4n3C)C2)s1 (centres unmarked) [Compound 25] | 0.00933
10 | CC(=O)Nc1ncc(CN2CCCC(Cc3cc4ncccc4n3C)C2)s1 (centres unmarked) [Compound 26] | < 0.00457
11 | c1cnc2cc(C3CCCN(Cc4ccc5c(c4)OCCO5)C3)[nH]c2c1 (centres unmarked) [Compound 39] | 3.63

Results, then the compound that gave them:

Row | EC50 [µM] | SMILES
12 | 0.955 | CC(c1ccc2c(c1)OCCO2)N1CCCC(c2cc3ncccc3n2C)C1 (centres unmarked) [Compound 40]
13 | > 10 | O=C(CN1CCCC(c2cc3ncccc3[nH]2)C1)N1CCCC1 (centres unmarked) [Compound 49]

Test system: not given
Assay: not given
Settings: not given

Row | melting point [°C] | SMILES
14 | 228.2 | CC(=O)Nc1ncc(CN2CCCC(c3nc4ncccc4[nH]3)C2)s1 (single isomer, unassigned) [Compound 19]
15 | 179.9 | O=C(CN1CCCC(c2cc3ncccc3[nH]2)C1)N1CCCC1 (centres unmarked) [Compound 49]

Target: T2, recombinant human Meningioma Expressed Antigen 5 (MGEA5), also referred to as O-GlcNAcase (OGA) (Homo sapiens, UniProt O60502)
T2 construct: Full length OGA enzyme was purchased at OriGene (cat # TP322411); purchased OriGene TP322411
T2 sequence (O60502 1-916): T1 sequence (O60502 1-916)
Assay: OGA biochemical assay: inhibition of FM-GlcNAc hydrolysis, fluorescence (protocol A 10 nM OGA, 1 h; protocol B 2 nM OGA, 6 h)
Settings: Enzymatic protocol A (10 nM OGA, 1 h)
Source text: The assay is based on the inhibition of the hydrolysis of fluorescein mono-B-D-N-Acetyl-Glucosamine (FM-GlcNAc) (Mariappa et al. 2015, Biochem J 470:255) by the recombinant human Meningioma Expressed Antigen 5 (MGEA5), also referred to as 0-GlcNAcase (OGA). The hydrolysis FM-GlcNAc (Marker Gene technologies, cat # M1485) results in the formation of β-D-N-glucosamineacetate and fluorescein. The fluorescence of the latter can be measured at excitation wavelength 485 nm and emission wavelength 538 nm. An increase in enzyme activity results in an increase in fluorescence signal. Full length OGA enzyme was purchased at OriGene (cat # TP322411). The enzyme was stored in 25 mM Tris.HCl, pH 7.3, 100 mM glycine, 10% glycerol at −20° C. Thiamet G and GlcNAcStatin were tested as reference compounds (Yuzwa et al. 2008 Nature Chemical Biology 4:483; Yuzwa et al. 2012 Nature Chemical Biology 8:393). The assay was performed in 200 mM Citrate/phosphate buffer supplemented with 0.005% Tween-20. 35.6 g Na2HPO4 2 H2O (Sigma, # C0759) were dissolved in 1 L water to obtain a 200 mM solution. 19.2 g citric acid (Merck, #1.06580) was dissolved in 1 L water to obtain a 100 mM solution. pH of the sodiumphosphate solution was adjusted with the citric acid solution to 7.2. The buffer to stop the reaction consists of a 500 mM Carbonate buffer, pH 11.0. 734 mg FM-GlcNAc were dissolved in 5.48 mL DMSO to obtain a 250 mM solution and was stored at −20° C. OGA was used at a 10 nM (protocol A) or 2 nM (protocol B) concentration and FM-GlcNAc at a 100 uM final concentration. Dilutions were prepared in assay buffer.
50 nl of a compound dissolved in DMSO was dispensed on Black Proxiplate™ 384 Plus Assay plates (Perkin Elmer, #6008269) and 3 μl fl-OGA enzyme mix added subsequently. Plates were pre-incubated for 60 min at room temperature and then 2 μl FM-GlcNAc substrate mix added. […] Plates were briefly centrifuged for 1 min at 1000 rpm and incubate at room temperature for 1 h (10 nM OGA, protocol A) or 6 h (2 nM OGA, protocol B). To stop the reaction 5 μl STOP buffer were added and plates centrifuge again 1 min at 1000 rpm. Fluorescence was quantified in the Thermo Scientific Fluoroskan Ascent or the PerkinElmer EnVision with excitation wavelength 485 nm and emission wavelength 538 nm.
For analysis a best-fit curve is fitted by a minimum sum of squares method. From this an IC50 value and Hill coefficient was obtained. High control (no inhibitor) and low control (saturating concentrations of standard inhibitor) were used to define the minimum and maximum values.

Row | Enzymatic Emax (%) | SMILES
16 | 102 | CC(=O)Nc1ncc(CN2CCCC(c3nc4ncccc4[nH]3)C2)s1 (single isomer, unassigned) [Compound 19]

Same assay, conditions: Enzymatic protocol A (10 nM OGA, 1 h); read-out: Enzymatic Emax (%)

Row | Emax [%] | SMILES
17 | 102 | CC(=O)Nc1ncc(S(=O)(=O)N2CCCC(c3cc4ncccc4[nH]3)C2)s1 (centres unmarked) [Compound 2]
18 | 98.2 | c1cnc2cc(C3CCCN(Cc4ccc5c(c4)OCCO5)C3)[nH]c2c1 (centres unmarked) [Compound 39]

Same assay, conditions: Enzymatic protocol A (10 nM OGA, 1 h); read-out: Enzymatic hOGA; pIC50 (converted)

Row | IC50 [µM] | SMILES
19 | 0.148 | CC(=O)Nc1ncc(CN2CCCC(c3nc4ncccc4[nH]3)C2)s1 (single isomer, unassigned) [Compound 19]
20 | 0.263 | CC(=O)Nc1ncc(S(=O)(=O)N2CCCC(c3cc4ncccc4[nH]3)C2)s1 (centres unmarked) [Compound 2]
21 | 0.617 | c1cnc2cc(C3CCCN(Cc4ccc5c(c4)OCCO5)C3)[nH]c2c1 (centres unmarked) [Compound 39]

Same assay, conditions: Enzymatic protocol B (2 nM OGA, 6 h); read-out: Enzymatic Emax (%)

Row | SMILES | Emax [%]
22 | CC(=O)Nc1ncc(CN2CCC(Cc3cc4ncccc4n3C)C2)s1 (centres unmarked) [Compound 25] | 102
23 | CC(=O)Nc1ncc(CN2CCCC(Cc3cc4ncccc4n3C)C2)s1 (centres unmarked) [Compound 26] | 101

Other lines, results leading:

Row | Emax [%] | SMILES
24 | 102 | CC(c1ccc2c(c1)OCCO2)N1CCCC(c2cc3ncccc3n2C)C1 (centres unmarked) [Compound 40]
25 | 80.5 | O=C(CN1CCCC(c2cc3ncccc3[nH]2)C1)N1CCCC1 (centres unmarked) [Compound 49]

Same assay, conditions: Enzymatic protocol B (2 nM OGA, 6 h); read-out: Enzymatic hOGA; pIC50 (converted)

Row | SMILES | IC50 [µM]
26 | CC(=O)Nc1ncc(CN2CCC(Cc3cc4ncccc4n3C)C2)s1 (centres unmarked) [Compound 25] | 0.00151
27 | CC(=O)Nc1ncc(CN2CCCC(Cc3cc4ncccc4n3C)C2)s1 (centres unmarked) [Compound 26] | 0.0024

The next lines start with the values.

Row | IC50 [µM] | SMILES
28 | 0.0617 | CC(c1ccc2c(c1)OCCO2)N1CCCC(c2cc3ncccc3n2C)C1 (centres unmarked) [Compound 40]
29 | 2.63 | O=C(CN1CCCC(c2cc3ncccc3[nH]2)C1)N1CCCC1 (centres unmarked) [Compound 49]
